Experimental data from patent US4151278A, “Process for the preparation of an extract of Teucrium marum used in particular in therapy” (Institut de Recherches Chimiques et Biologiques Appliquees, priority 1976, dated 1979).

Test system: spontaneous respiration in male guinea pigs
Assay: Analeptic respiratory activity after morphine depression
Type: in vivo
Conditions: 20 mg/kg intravenously; reference; before morphine 58, 20 minutes after morphine 29
Protocol: The spontaneous respiration in male guinea pigs, weighing 400-600 g, which have been anaesthetized, is recorded by means of a tracheal probe connected to an electronic recorder.
In a first stage, the respiration is depressed by an intravenous injection of 10 mg/kg of morphine. In a second stage, 20 minutes after the morphine, the product to be studied is injected intravenously.
The respiratory rhythm is recorded before the injection of morphine, and before and 1 minute after the injection of the product to be studied.

SMILES: Cn1c(=O)c2[nH]cnc2n(C)c1=O [theophylline]
- respiratory rhythm 1 minute after administration of the product: 47 pulsations/minute
